Source: patent US12403091B2, “Delivery system” (SMARTECH TOPICAL, INC., priority 2016, dated 2025)

Settings: same subject; Celebrex initiated and stopped after 3 days

## Cc1ccc(-c2cc(C(F)(F)F)nn2-c2ccc(S(N)(=O)=O)cc2)cc1 [Celebrex, celecoxib]
  Side effects leading to discontinuation: drowsiness and GI side effects
